Like-named read-outs stand apart in the source and are kept apart here.
Key:
Format in all cases: in vivo
corn (Zea mays) = test: Test C pre-/postemergence greenhouse test, plant response rating 0-100; conditions: Zea mays; for Corn plant response rating (crop injury, 0 = no effect, 100 = complete kill) at 250 g/ha: 250 g ai/ha; for Corn plant response rating (crop injury, 0 = no effect, 100 = complete kill) at 500 g/ha: 500 g ai/ha
How it was run: (§1)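 After treatment, pots stay in the greenhouse 13–15 days before each species is compared with untreated controls and given a 0–100 visual score. Preemergence seeds are in loam blended with sand; postemergence plants, 1–4 leaves, are in peat-based medium.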

[1] = test system: Italian ryegrass (Lolium multiflorum); test: as above; conditions: Lolium multiflorum; for pest or weed control at 62 g/ha: 62 g ai/ha; for pest or weed control at 125 g/ha: 125 g ai/ha; for pest or weed control at 250 g/ha: 250 g ai/ha; for pest or weed control at 500 g/ha: 500 g ai/ha
How it was run: as §1

soybean (Glycine max) = test: as above; conditions: Glycine max; for plant injury at 62 g/ha: 62 g ai/ha; for plant injury at 125 g/ha: 125 g ai/ha; for plant injury at 250 g/ha: 250 g ai/ha; for plant injury at 500 g/ha: 500 g ai/ha
How it was run: as §1

[2] = test system: pigweed (Amaranthus retroflexus); test: as above; conditions: Amaranthus retroflexus; for pest or weed control at 62 g/ha: 62 g ai/ha; for pest or weed control at 125 g/ha: 125 g ai/ha; for pest or weed control at 250 g/ha: 250 g ai/ha; for pest or weed control at 500 g/ha: 500 g ai/ha
How it was run: as §1

[3] = test system: blackgrass (Alopecurus myosuroides); test: as above; conditions: Alopecurus myosuroides; for pest or weed control at 62 g/ha: 62 g ai/ha; for pest or weed control at 125 g/ha: 125 g ai/ha; for pest or weed control at 250 g/ha: 250 g ai/ha; for pest or weed control at 500 g/ha: 500 g ai/ha
How it was run: as §1

wild oat (Avena fatua) = test: Test C postemergence greenhouse test, plant response rating 0-100; conditions: Avena fatua, post-emergence
How it was run: (§2)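 Scores run from 0, meaning no effect, to 100, meaning complete control, and come from visual comparison with untreated controls. Treatment was a postemergence application to plants 2–18 cm tall. Assessment followed 13 to 15 days of greenhouse growth.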

kochia (Kochia scoparia) = test: as above; conditions: Bassia scoparia, post-emergence
How it was run: as §2

[4] = test system: chickweed (common chickweed, Stellaria media); test: as above; conditions: Stellaria media, post-emergence
How it was run: as §2

[5] = post-emergence, Postemergence, scale 0 to 100
[6] = post-emergence, Postemergence, read-out: Plant response rating (0 to 100), Ryegrass, Italian
[7] = pre-emergence, Preemergence, read-out: Plant response rating, Ryegrass, Italian
[8] = post-emergence, Postemergence, read-out: Plant response rating (0 to 100), Soybean
[9] = pre-emergence, Preemergence, read-out: Plant response rating, Soybean
[10] = post-emergence, Postemergence, read-out: Plant response rating (0 to 100), Pigweed
[11] = pre-emergence, Preemergence, read-out: Plant response rating, Pigweed
[12] = pre-emergence, Preemergence, read-out: Plant response rating, Blackgrass

Work on `COCC(=O)n1cc(C(=O)c2ccccc2)c(-c2cc(Cl)cc(Cl)c2)n1` [Compound 16, 1-[4-benzoyl-3-(3,5-dichlorophenyl)-1H-pyrazol-1-yl]-2-methoxyethanone] yielded a Corn plant response rating (crop injury, 0 = no effect, 100 = complete kill) at 250 g/ha (corn (Zea mays); [5]) of 0%, a Corn plant response rating (crop injury, 0 = no effect, 100 = complete kill) at 500 g/ha (corn (Zea mays); [5]) of 0% and a Corn plant response rating (crop injury, 0 = no effect, 100 = complete kill) at 62 g/ha (corn (Zea mays); pre-emergence, Preemergence, 62 g ai/ha) of 0%. It also gave a Corn plant response rating (crop injury, 0 = no effect, 100 = complete kill) at 125 g/ha (corn (Zea mays); pre-emergence, Preemergence, 125 g ai/ha) of 0%, a Corn plant response rating (crop injury, 0 = no effect, 100 = complete kill) at 250 g/ha (corn (Zea mays); pre-emergence, Preemergence) of 0% and a Corn plant response rating (crop injury, 0 = no effect, 100 = complete kill) at 500 g/ha (corn (Zea mays); pre-emergence, Preemergence) of 0%. For the same compound, the pest or weed control at 62 g/ha [1, 6] was 0%, the pest or weed control at 125 g/ha [1, 6] was 0% and the pest or weed control at 250 g/ha [1, 5] was 0%. The pest or weed control at 500 g/ha [1, 5] was 0%, the pest or weed control at 62 g/ha [1, 7] was 0% and the pest or weed control at 125 g/ha [1, 7] was 0%. For the same compound, the pest or weed control at 250 g/ha ([1]; pre-emergence, Preemergence) was 0%, the pest or weed control at 500 g/ha ([1]; pre-emergence, Preemergence) was 0% and the plant injury at 62 g/ha (soybean (Glycine max); [8]) was 0%. For the same compound, the plant injury at 125 g/ha (soybean (Glycine max); [8]) was 0%, the plant injury at 250 g/ha (soybean (Glycine max); [5]) was 0% and the plant injury at 500 g/ha (soybean (Glycine max); [5]) was 0%. For the same compound, the plant injury at 62 g/ha (soybean (Glycine max); [9]) was 0%, the plant injury at 125 g/ha (soybean (Glycine max); [9]) was 0% and the plant injury at 250 g/ha (soybean (Glycine max); pre-emergence, Preemergence) was 0%. For the same compound, the plant injury at 500 g/ha (soybean (Glycine max); pre-emergence, Preemergence) was 0%, the pest or weed control at 62 g/ha [2, 10] was 85% and the pest or weed control at 125 g/ha [2, 10] was 85%. For the same compound, the pest or weed control at 250 g/ha [2, 5] was 100%, the pest or weed control at 500 g/ha [2, 5] was 100% and the pest or weed control at 62 g/ha [2, 11] was 85%. For the same compound, the pest or weed control at 125 g/ha [2, 11] was 85%, the pest or weed control at 250 g/ha ([2]; pre-emergence, Preemergence) was 100% and the pest or weed control at 500 g/ha ([2]; pre-emergence, Preemergence) was 100%. It also gave a pest or weed control at 62 g/ha ([3]; post-emergence, Postemergence, read-out: Plant response rating (0 to 100), Blackgrass) of 0%, a pest or weed control at 125 g/ha ([3]; post-emergence, Postemergence, scale 0 to 100, read-out: Plant response rating, Blackgrass) of 0% and a pest or weed control at 250 g/ha [3, 5] of 0%. The pest or weed control at 500 g/ha [3, 5] was 0%, the pest or weed control at 62 g/ha [3, 12] was 0% and the pest or weed control at 125 g/ha [3, 12] was 0%. For the same compound, the pest or weed control at 250 g/ha ([3]; pre-emergence, Preemergence) was 0%, the pest or weed control at 500 g/ha ([3]; pre-emergence, Preemergence) was 0% and the pest or weed control at 62 g/ha (wild oat (Avena fatua); 62 g ai/ha) was 0%. It also gave a pest or weed control at 125 g/ha (wild oat (Avena fatua); 125 g ai/ha) of 0%, a pest or weed control at 250 g/ha (wild oat (Avena fatua); 250 g ai/ha, scale 0 to 100) of 0% and a pest or weed control at 500 g/ha (wild oat (Avena fatua); 500 g ai/ha, scale 0 to 100) of 0%. It also gave a pest or weed control at 62 g/ha (kochia (Kochia scoparia); 62 g ai/ha) of 80%, a pest or weed control at 125 g/ha (kochia (Kochia scoparia); 125 g ai/ha) of 85% and a pest or weed control at 250 g/ha (kochia (Kochia scoparia); 250 g ai/ha, scale 0 to 100) of 90%. It also gave a pest or weed control at 500 g/ha (kochia (Kochia scoparia); 500 g ai/ha, scale 0 to 100) of 90%, a pest or weed control at 62 g/ha ([4]; 62 g ai/ha) of 95% and a pest or weed control at 125 g/ha ([4]; 125 g ai/ha) of 100%. For the same compound, the pest or weed control at 250 g/ha ([4]; 250 g ai/ha, scale 0 to 100) was 100% and the pest or weed control at 500 g/ha ([4]; 500 g ai/ha, scale 0 to 100) was 100%.

Reference: patent publication US10167262B2, “Herbicidal substituted 3-arylpyrazoles” (FMC CORPORATION, priority 2014, dated 2019)
